This data set concerns CCRIS mutagenicity, Ames/micronucleus/aberration tests. In words: CCRIS mutagenicity studies.
Setting [1] is: Test System: AMES SALMONELLA TYPHIMURIUM, Strain/Indicator: TA98, Metabolic Activation: NONE, Method: STANDARD PLATE.
Where [2] appears, read: Test System: AMES SALMONELLA TYPHIMURIUM, Strain/Indicator: TA100, Metabolic Activation: NONE, Method: STANDARD PLATE.
The mark [3] stands for this setting: Test System: AMES SALMONELLA TYPHIMURIUM, Strain/Indicator: TA1535, Metabolic Activation: NONE, Method: STANDARD PLATE.
[4] abbreviates: Test System: AMES SALMONELLA TYPHIMURIUM, Strain/Indicator: TA98, Metabolic Activation: RAT, LIVER, S-9, AROCLOR 1254, Method: STANDARD PLATE.
Where [5] appears, read: Test System: AMES SALMONELLA TYPHIMURIUM, Strain/Indicator: TA100, Metabolic Activation: RAT, LIVER, S-9, AROCLOR 1254, Method: STANDARD PLATE.
The mark [6] stands for this setting: Test System: AMES SALMONELLA TYPHIMURIUM, Strain/Indicator: TA98, Metabolic Activation: NONE, Method: PREINCUBATION
[7] abbreviates: Test System: AMES SALMONELLA TYPHIMURIUM, Strain/Indicator: TA100, Metabolic Activation: HAMSTER, LIVER, S-9, AROCLOR 1254 (10%), Method: PREINCUBATION
The mark [8] stands for this setting: Test System: AMES SALMONELLA TYPHIMURIUM, Strain/Indicator: TA100, Metabolic Activation: NONE, Method: PREINCUBATION
Where [9] appears, read: Test System: AMES SALMONELLA TYPHIMURIUM, Strain/Indicator: TA1535, Metabolic Activation: HAMSTER, LIVER, S-9, AROCLOR 1254 (10%), Method: PREINCUBATION
Setting [10] is: Test System: AMES SALMONELLA TYPHIMURIUM, Strain/Indicator: TA1535, Metabolic Activation: NONE, Method: PREINCUBATION
Where [11] appears, read: Test System: AMES SALMONELLA TYPHIMURIUM, Strain/Indicator: TA1537, Metabolic Activation: NONE, Method: PREINCUBATION

Active and inactive are the calls of the source. How the calls were made is not given here.

In the case of `CCc1ccc(/C=C/c2ccc([N+](=O)[O-])cc2)cc1`, the mutagenic call under setting [1] is “active; positive”; the mutagenic call (Test System: AMES SALMONELLA TYPHIMURIUM, Strain/Indicator: TA98, Metabolic Activation: RAT, LIVER, S-9, AROCLOR, Method: STANDARD PLATE) was “active; positive”; the mutagenic call under setting [2] was “active; positive”; the mutagenic call (Test System: AMES SALMONELLA TYPHIMURIUM, Strain/Indicator: TA100, Metabolic Activation: RAT, LIVER, S-9, AROCLOR, Method: STANDARD PLATE) was “active; positive”.

`C=C.CC(N)c1ccccc1.[Cl-].[Cl-].[Pt+2]` (configuration not stated): the mutagenic call is “inactive; negative” (Test System: AMES SALMONELLA TYPHIMURIUM, Strain/Indicator: TA92, Metabolic Activation: NONE, Method: STANDARD PLATE); “inactive; negative” under setting [1]; “inactive; negative” under setting [2]; “inactive; negative” (Test System: AMES SALMONELLA TYPHIMURIUM, Strain/Indicator: TA2410, Metabolic Activation: NONE, Method: STANDARD PLATE).

In the case of `C=C1C[C@@]23CC[C@H]4[C@@](C)(CCC[C@@]4(C)C(=O)O)[C@@H]2CC[C@]1(O[C@@H]1O[C@H](CO)[C@@H](O)[C@H](O)[C@H]1O)C3`, the mutagenic call (Test System: AMES SALMONELLA TYPHIMURIUM, Strain/Indicator: TM677, Metabolic Activation: RAT, LIVER, S-9, AROCLOR 1254, Method: PREINCUBATION) is “active; positive”.

For the compound `O=NN(CCCl)C(=O)NCCO`, the mutagenic call under setting [3] is “active; positive”.

With `O=C1CCC(=O)N1c1cc(Cl)cc(Cl)c1`, the mutagenic call under setting [1] is “inactive; negative”, the mutagenic call under setting [4] is “inactive; negative”, the mutagenic call under setting [2] was “inactive; negative” and the mutagenic call under setting [5] is “inactive; negative”.

`CCCCOc1ccc(C=Nc2ccc(CC)cc2)cc1`: the mutagenic call by setting is: (Test System: AMES SALMONELLA TYPHIMURIUM, Strain/Indicator: TA97, Metabolic Activation: HAMSTER, LIVER, S-9, AROCLOR 1254 (30%), Method: PREINCUBATION) “inactive; negative”; (Test System: AMES SALMONELLA TYPHIMURIUM, Strain/Indicator: TA97, Metabolic Activation: NONE, Method: PREINCUBATION) “inactive; negative”; (Test System: AMES SALMONELLA TYPHIMURIUM, Strain/Indicator: TA97, Metabolic Activation: RAT, LIVER, S-9, AROCLOR 1254 (30%), Method: PREINCUBATION) “inactive; negative”; (Test System: AMES SALMONELLA TYPHIMURIUM, Strain/Indicator: TA98, Metabolic Activation: HAMSTER, LIVER, S-9, AROCLOR 1254 (30%), Method: PREINCUBATION) “inactive; negative”; under setting [6], “inactive; negative”; (Test System: AMES SALMONELLA TYPHIMURIUM, Strain/Indicator: TA98, Metabolic Activation: RAT, LIVER, S-9, AROCLOR 1254 (30%), Method: PREINCUBATION) “inactive; negative”. Also, the mutagenic call by setting is: under setting [7], “inactive; negative”; under setting [8], “inactive; negative”; (Test System: AMES SALMONELLA TYPHIMURIUM, Strain/Indicator: TA100, Metabolic Activation: RAT, LIVER, S-9, AROCLOR 1254 (30%), Method: PREINCUBATION) “inactive; negative”; under setting [9], “inactive; negative”; (Test System: AMES SALMONELLA TYPHIMURIUM, Strain/Indicator: TA1535, Metabolic Activation: HAMSTER, LIVER, S-9, AROCLOR 1254 (30%), Method: PREINCUBATION) “inactive; negative”; under setting [10], “inactive; negative”. In addition, the mutagenic call by setting is: (Test System: AMES SALMONELLA TYPHIMURIUM, Strain/Indicator: TA1535, Metabolic Activation: RAT, LIVER, S-9, AROCLOR 1254 (30%), Method: PREINCUBATION) “inactive; negative”; (Test System: AMES SALMONELLA TYPHIMURIUM, Strain/Indicator: TA1537, Metabolic Activation: HAMSTER, LIVER, S-9, AROCLOR 1254 (30%), Method: PREINCUBATION) “inactive; negative”; under setting [11], “inactive; negative”; (Test System: AMES SALMONELLA TYPHIMURIUM, Strain/Indicator: TA1537, Metabolic Activation: RAT, LIVER, S-9, AROCLOR 1254 (30%), Method: PREINCUBATION) “inactive; negative”.

For the compound `CCN(CC)C(=S)SSC[C@H](NC(C)=O)C(=O)O`, the mutagenic call runs as follows: under setting [6], “inactive; negative”; under setting [1], “inactive; negative”; (Test System: AMES SALMONELLA TYPHIMURIUM, Strain/Indicator: TA98, Metabolic Activation: RAT, LIVER, S-9, AROCLOR 1254, Method: PREINCUBATION) “inactive; negative”; under setting [4], “inactive; negative”; under setting [8], “inactive; negative”; under setting [2], “inactive; negative”. In addition, the mutagenic call reads like this: (Test System: AMES SALMONELLA TYPHIMURIUM, Strain/Indicator: TA100, Metabolic Activation: RAT, LIVER, S-9, AROCLOR 1254, Method: PREINCUBATION) “inactive; negative”; under setting [5], “inactive; negative”.

On to `COc1ccc(CN(CCN(C)C)c2ccccn2)cc1`, for which the mutagenic call (Test System: AMES SALMONELLA TYPHIMURIUM, Strain/Indicator: TA97, Metabolic Activation: NONE, Method: STANDARD PLATE) is “inactive; negative”; the mutagenic call (Test System: AMES SALMONELLA TYPHIMURIUM, Strain/Indicator: TA97, Metabolic Activation: RAT, LIVER, S-9, AROCLOR 1254, Method: STANDARD PLATE) was “inactive; negative”; the mutagenic call (Test System: AMES SALMONELLA TYPHIMURIUM, Strain/Indicator: TA98, Metabolic Activation: HAMSTER, LIVER, S-9, AROCLOR 1254 (10%), Method: PREINCUBATION) was “inactive; negative”; the mutagenic call under setting [6] was “inactive; negative”; the mutagenic call under setting [1] is “inactive; negative”; the mutagenic call (Test System: AMES SALMONELLA TYPHIMURIUM, Strain/Indicator: TA98, Metabolic Activation: RAT, LIVER, S-9, AROCLOR 1254 (10%), Method: PREINCUBATION) is “inactive; negative”. The mutagenic call was “inactive; negative” under setting [4]; “inactive; negative” under setting [7]; “inactive; negative” under setting [8]; “inactive; negative” under setting [2]; “inactive; negative” (Test System: AMES SALMONELLA TYPHIMURIUM, Strain/Indicator: TA100, Metabolic Activation: RAT, LIVER, S-9, AROCLOR 1254 (10%), Method: PREINCUBATION); “inactive; negative” under setting [5]. Also, the mutagenic call was “inactive; negative” (Test System: AMES SALMONELLA TYPHIMURIUM, Strain/Indicator: TA102, Metabolic Activation: NONE, Method: STANDARD PLATE); “inactive; negative” (Test System: AMES SALMONELLA TYPHIMURIUM, Strain/Indicator: TA102, Metabolic Activation: RAT, LIVER, S-9, AROCLOR 1254, Method: STANDARD PLATE); “inactive; negative” under setting [9]; “inactive; negative” under setting [10]; “inactive; negative” (Test System: AMES SALMONELLA TYPHIMURIUM, Strain/Indicator: TA1535, Metabolic Activation: RAT, LIVER, S-9, AROCLOR 1254 (10%), Method: PREINCUBATION); “inactive; negative” (Test System: AMES SALMONELLA TYPHIMURIUM, Strain/Indicator: TA1537, Metabolic Activation: HAMSTER, LIVER, S-9, AROCLOR 1254 (10%), Method: PREINCUBATION). Besides, the mutagenic call by setting is: under setting [11], “inactive; negative”; (Test System: AMES SALMONELLA TYPHIMURIUM, Strain/Indicator: TA1537, Metabolic Activation: RAT, LIVER, S-9, AROCLOR 1254 (10%), Method: PREINCUBATION) “inactive; negative”; (Test System: MOUSE LYMPHOMA, Strain/Indicator: L5178Y (TK+/TK-), Metabolic Activation: NONE, Method: SUSPENSION/PLATE) “inactive; negative”; (Test System: MOUSE LYMPHOMA, Strain/Indicator: L5178Y (TK+/TK-), Metabolic Activation: RAT, LIVER, S-9, AROCLOR 1242 AND 1254 (2:1 MIXTURE), Method: SUSPENSION/PLATE) “active; positive”.

For the compound `CC(=O)N(C)N=O`, the mutagenic call reads like this: under setting [3], “active; positive”; (Test System: E. COLI, Strain/Indicator: WU3610, Metabolic Activation: NONE, Method: SUSPENSION/PLATE) “active; positive”.

The values are drawn from PubChem BioAssay AID1259407 (Chemical Carcinogenesis Research Information System (CCRIS), 2018).
